Experimental data reported in US20260374766A1, “METHODS FOR TREATING CANCER” (Antares Therapeutics, Inc., priority 2022, published 2026).
Read-outs that look alike come from different tables or passages of the source.

Tests used:
H1299 p53 R273H = assay: Cell Proliferation Assay (CellTiter-Glo, CTG), H1299 p53 R273H (NClH1299-inducible p53 R273H); type: cell-based; details: Homo sapiens, NCI-H1299, 120 h, NClH1299-inducible p53 R273H cells, 5 days
Summary of the method: (§1)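 Tet-One inducible p53 Y220C or R273H constructs were stably introduced into NCI-H1299 by lentiviral transduction; NUGC3 was used as is. Cells (250-500 per well) were exposed to compound for 5 days, then CellTiter-Glo was added for 10 min at room temperature and IC50 was calculated from luminescence.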

H1299 p53 Y220C = assay: Cell Proliferation Assay (CellTiter-Glo, CTG), H1299 p53 Y220C (NClH1299-inducible p53 Y220C); type: cell-based; details: Homo sapiens, NCI-H1299, 120 h, NClH1299-inducible p53 Y220C cells, 5 days
Summary of the method: as §1

p53 Y220C = p53 Y220C (Homo sapiens, UniProt P04637, Y220C); assay: Luciferase Reporter Assay (Luc), p53 response element, NClH1299 cells with inducible p53 Y220C; type: cell-based; details: 6 hour; for AC50: read-out: Luc P53 Y220C AC50
Summary of the method: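 Doxycycline (0.5 ug/mL, 24 h) induces the mutant before a 6-hour compound treatment. Reporter activity is then quantified by One-Glo luminescence.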

[1] = biological target: T1, p53 Y220C mutant protein (amino acid residues 94-293) (Homo sapiens, UniProt P04637, Y220C); assay: Surface Plasmon Resonance (SPR) assay, Kd_kinetic; type: binding; details: SPR; p53 Y220C; read-out: SPR P53 Y220C KD kinetic
T1 construct: p53 Y220C mutant protein (amino acid residues 94-293)
Summary of the method: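 Kinetic dissociation constants derived by 1:1 model fit of SPR data acquired at 16 or 20 °C, pH 7.5 Tris/NaCl running buffer with 1% DMSO.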

NUGC3 p53 Y220C = assay: Cell Proliferation Assay (CellTiter-Glo, CTG), NUGC3 p53 Y220C; type: cell-based; details: Homo sapiens, NUGC-3, 120 h, NUGC3 cells, 5 days
Summary of the method: as §1

[2] = luciferase reporter, NClH1299 inducible p53 Y220C
[3] = NClH1299 cells with inducible p53 Y220C
[4] = NClH1299 cells with inducible p53 Y220C, 10 uM tool compound as positive control

T1 sequence (P04637 94-293, stated change not applied): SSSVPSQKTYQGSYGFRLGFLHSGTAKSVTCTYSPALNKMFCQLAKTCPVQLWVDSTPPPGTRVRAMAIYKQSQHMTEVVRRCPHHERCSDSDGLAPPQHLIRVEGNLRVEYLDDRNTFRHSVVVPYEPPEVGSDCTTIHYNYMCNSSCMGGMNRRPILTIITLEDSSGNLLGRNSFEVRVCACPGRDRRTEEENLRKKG

Row | Structure (SMILES) | IC50 (H1299 p53 R273H; CellTiter-Glo) | IC50 (H1299 p53 Y220C; CellTiter-Glo) | AC50 (p53 Y220C; [2]) | Emax (p53 Y220C; [2]) | Kd [1] | IC50 (NUGC3 p53 Y220C; CellTiter-Glo) | IC50 (H1299 p53 R273H) | IC50 (H1299 p53 Y220C) | AC50 (p53 Y220C; [3]) | Emax (p53 Y220C; [4]) | IC50 (NUGC3 p53 Y220C)
1 | CNC(=O)c1ccc(OC)c(NCC#Cc2nc3c(N[C@H]4C[C@@H]5CC[C@H]4N5C)cccn3c2SC(F)(F)F)c1 [Example 248] | 5000 to 8000 nM | 750 to 1500 nM | 750 to 1500 nM | 70 to 80% | < 10 nM | 750 to 1500 nM | – | – | – | – | –
2 | O=C(NC[C@H]1CCO1)c1ccc(NCC#Cc2cc3c(N[C@@H]4CCNC[C@@H]4F)cccn3c2SC(F)(F)F)cc1 [Example 365] | < 5000 nM | < 750 nM | < 750 nM | 80 to 90% | < 10 nM | < 750 nM | – | – | – | – | –
3 | COc1cc(C(=O)NCC(C)(C)O)ccc1NCC#Cc1cc2c(N[C@@H]3CCN(C)C[C@@H]3F)cccn2c1SC(F)(F)F [Example 375] | 8000 to 10000 nM | < 750 nM | < 750 nM | > 90% | < 10 nM | < 750 nM | – | – | – | – | –
4 | CN1CC[C@@H](Nc2cccn3c(SC(F)(F)F)c(C#CCNc4ccc(P(C)(C)=O)nc4)cc23)[C@@H](F)C1 [Example 420, 2-(3-{[6-(dimethylphosphoryl)pyridin-3-yl]amino}prop-1-yn-1-yl)-N-[(3S,4R)-3-fluoro-1-methylpiperidin-4-yl]-3-[(trifluoromethyl)sulfanyl]indolizin-8-amine] | ≥ 10000 nM | < 750 nM | < 750 nM | 80 to 90% | < 10 nM | < 750 nM | – | – | – | – | –
5 | COc1cc(C(=O)NC[C@H](C)O)ccc1NCC#Cc1cc2c(N[C@@H]3CCN(C)C[C@@H]3F)cccn2c1SC(F)(F)F [Example 475, 4-{[3-(8-{[(3S,4R)-3-fluoro-1-methylpiperidin-4-yl]amino}-3-[(trifluoromethyl)sulfanyl]indolizin-2-yl)prop-2-yn-1-yl]amino}-N-[(2S)-2-hydroxypropyl]-3-methoxybenzamide] | – | – | – | – | < 10 nM | – | 8000 to 10000 nM | < 750 nM | < 750 nM | > 90% | < 750 nM
6 | C[C@H](O)[C@@H](C)NC(=O)c1ccc(NCC#Cc2cc3c(N[C@@H]4CCN(C)C[C@@H]4F)cccn3c2SC(F)(F)F)cc1 [Example 376] | ≥ 10000 nM | < 750 nM | < 750 nM | > 90% | < 10 nM | < 750 nM | – | – | – | – | –
7 | CNC(=O)c1ccc(OC)c(NCC#Cc2cn3c(N[C@@H]4CCNC[C@@H]4F)cccc3c2SC(F)(F)F)c1 [Example 381] | 8000 to 10000 nM | < 750 nM | < 750 nM | > 90% | < 10 nM | < 750 nM | – | – | – | – | –
8 | CN1CC[C@@H](Nc2cccn3c(SC(F)(F)F)c(C#CCNc4ccc(C(=O)NCC5COC5)cc4)cc23)[C@@H](F)C1 [Example 447] | ≥ 10000 nM | < 750 nM | < 750 nM | > 90% | < 10 nM | < 750 nM | – | – | – | – | –
9 | CNC(=O)c1ccc(OC)c(NCC#Cc2cc3c(N[C@@H]4CCN(CC(C)O)C[C@@H]4F)cccn3c2SC(F)(F)F)c1 (single isomer, unassigned) [Example 480, 3-{[3-(8-{[(3S,4R)-3-fluoro-1-[(2R*)-2-hydroxypropyl]piperidin-4-yl]amino}-3-[(trifluoromethyl)sulfanyl]indolizin-2-yl)prop-2-yn-1-yl]amino}-4-methoxy-N-methylbenzamide] | – | – | – | – | < 10 nM | – | 8000 to 10000 nM | < 750 nM | < 750 nM | > 90% | < 750 nM
10 | CNC(=O)c1ccc(OC)c(NCC#Cc2nc3c(N[C@@H]4CN(C)C[C@@H]4F)cccn3c2CC(F)(F)F)n1 [Example 262] | ≥ 10000 nM | < 750 nM | 750 to 1500 nM | 70 to 80% | < 10 nM | 750 to 1500 nM | – | – | – | – | –
